According to US10414769B2, “5,8-dimethyl-9-phenyl-5,8-dihydro-6H-pyrazolo[3,4-h]quinazolin-2-yl)-(1H-pyrazol-3-yl)-amines as IGF-1R/IR inhibitors” (Boehringer Ingelheim International GmbH, priority 2015, dated 2019):

Assays:
NEK2 = molecular target: T1, NEK2 (Homo sapiens, UniProt P51955); assay: Z'-LYTE kinase selectivity assay NEK2; format: biochemical
T1 construct: purchased Life Technologies PV 3360
T1 sequence (P51955 1-445): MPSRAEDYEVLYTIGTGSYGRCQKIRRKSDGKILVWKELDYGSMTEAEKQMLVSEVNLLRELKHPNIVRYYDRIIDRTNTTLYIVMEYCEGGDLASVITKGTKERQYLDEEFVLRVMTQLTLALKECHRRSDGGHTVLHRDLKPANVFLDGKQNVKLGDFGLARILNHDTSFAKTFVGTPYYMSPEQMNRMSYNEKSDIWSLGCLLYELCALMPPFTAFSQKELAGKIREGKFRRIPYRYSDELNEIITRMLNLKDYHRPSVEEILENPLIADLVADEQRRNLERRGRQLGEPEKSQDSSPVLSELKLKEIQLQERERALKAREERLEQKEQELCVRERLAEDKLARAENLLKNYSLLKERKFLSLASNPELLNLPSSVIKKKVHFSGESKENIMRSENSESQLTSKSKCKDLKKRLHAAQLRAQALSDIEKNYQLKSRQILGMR
From the text: (§1) In order to compare the kinase selectivity of compounds (I) according to the invention with known prior art compounds the commercially provided SelectScreen® Kinase Profiling Service (Z′-LYTE®) was used (Life Technologies GmbH, Darmstadt, Germany) to investigate the ability of the compounds to inhibit a number of different, representatively selected human kinases. Further details regarding this service are available on the Life Technologies website at
(§2) The Z′-LYTE® biochemical assay employs a fluorescence-based, coupled-enzyme format and is based on the differential sensitivity of phosphorylated and non-phosphorylated peptides to proteolytic cleavage. The peptide substrate is labeled with two fluorophores—one at each end—that make up a FRET pair.
(§3) In the primary reaction, the kinase transfers the gamma-phosphate of ATP to a single tyrosine, serine or threonine residue in a synthetic FRET-peptide. In the secondary reaction, a site-specific protease recognizes and cleaves non-phosphorylated FRET-peptides. Phosphorylation of FRET-peptides suppresses cleavage by the Development Reagent. Cleavage disrupts FRET between the donor (i.e., coumarin) and acceptor (i.e., fluorescein) fluorophores on the FRET-peptide, whereas uncleaved, phosphorylated FRET-peptides maintain FRET. A ratiometric method, which calculates the ratio (the Emission Ratio) of donor emission to acceptor emission after excitation of the donor fluorophore at 400 nm, is used to quantitate reaction progress, as shown in the equation below.
(§4) The Test Compounds are screened at 1 μM.
The 2×NEK2 (# PV 3360)/Ser/Thr 07 (Z′-LYTE® Kinase Assay Kit—Ser/Thr 7 Peptide, # PV 3180) mixture is prepared in 50 mM HEPES pH 7.5, 0.01% BRIJ-35, 10 mM MgCl2, 1 mM EGTA. The final 10 μL Kinase Reaction consists of 0.5-5.4 ng NEK2 and 2 μM Ser/Thr 07 in 50 mM HEPES pH 7.5, 0.01% BRIJ-35, 10 mM MgCl2, 1 mM EGTA. After the 1 hour Kinase Reaction incubation, 5 μL of a 1:65000 dilution of Development Reagent A is added.

AMPK A1/B1/G1 = molecular target: T2, AMPK A1/B1/G1 (Homo sapiens, UniProt Q13131); assay: Z'-LYTE kinase selectivity assay AMPK A1/B1/G1; format: biochemical; details: read-out: AMPK A1B1G1 % inhibition
T2 construct: purchased Life Technologies PV 4672
T2 sequence (Q13131 whole entry): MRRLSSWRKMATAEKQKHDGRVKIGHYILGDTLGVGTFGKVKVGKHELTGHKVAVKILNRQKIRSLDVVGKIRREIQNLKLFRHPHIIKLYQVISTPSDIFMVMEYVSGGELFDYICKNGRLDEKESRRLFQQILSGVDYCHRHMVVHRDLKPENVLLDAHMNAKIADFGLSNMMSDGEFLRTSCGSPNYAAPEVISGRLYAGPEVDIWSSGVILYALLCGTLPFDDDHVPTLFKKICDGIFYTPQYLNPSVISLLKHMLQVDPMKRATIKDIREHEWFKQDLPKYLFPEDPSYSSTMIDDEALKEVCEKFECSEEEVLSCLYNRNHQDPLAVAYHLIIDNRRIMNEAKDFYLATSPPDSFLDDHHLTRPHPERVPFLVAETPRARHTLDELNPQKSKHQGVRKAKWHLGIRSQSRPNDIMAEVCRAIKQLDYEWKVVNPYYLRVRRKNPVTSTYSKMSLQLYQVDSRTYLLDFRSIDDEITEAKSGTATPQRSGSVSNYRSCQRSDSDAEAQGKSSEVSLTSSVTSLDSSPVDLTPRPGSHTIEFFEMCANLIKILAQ
T2 sequence (Q9Y478 whole entry partner): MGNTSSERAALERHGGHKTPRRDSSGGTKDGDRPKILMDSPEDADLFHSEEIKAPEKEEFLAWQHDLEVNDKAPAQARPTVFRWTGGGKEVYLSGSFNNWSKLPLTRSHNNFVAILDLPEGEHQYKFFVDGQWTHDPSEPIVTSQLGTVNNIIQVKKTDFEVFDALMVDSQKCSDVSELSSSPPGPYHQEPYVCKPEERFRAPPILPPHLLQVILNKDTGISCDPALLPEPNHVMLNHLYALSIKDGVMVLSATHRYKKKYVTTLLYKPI
T2 sequence (P54619 whole entry partner): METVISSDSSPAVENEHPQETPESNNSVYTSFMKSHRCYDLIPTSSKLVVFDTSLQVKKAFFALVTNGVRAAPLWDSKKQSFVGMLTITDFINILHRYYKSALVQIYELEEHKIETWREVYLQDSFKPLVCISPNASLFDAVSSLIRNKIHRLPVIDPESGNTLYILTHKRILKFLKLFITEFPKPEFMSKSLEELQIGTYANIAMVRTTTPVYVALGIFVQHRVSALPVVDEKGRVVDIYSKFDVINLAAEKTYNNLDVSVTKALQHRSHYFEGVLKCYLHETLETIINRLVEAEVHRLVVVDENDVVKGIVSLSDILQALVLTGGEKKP
From the text: as §1, §2, §3, §4
The 2×AMPK A1/B1/G1 (# PV 4672)/Ser/Thr 23 (Z′-LYTE® Kinase Assay Kit—Ser/Thr 23 Peptide, # PV 4644) mixture is prepared in 50 mM HEPES pH 7.5, 0.01% BRIJ-35, 10 mM MgCl2, 1 mM EGTA. The final 10 μL Kinase Reaction consists of 0.43-2.86 ng AMPK A1/B1/G1 and 2 μM Ser/Thr 23 in 50 mM HEPES pH 7.5, 0.01% BRIJ-35, 10 mM MgCl2, 1 mM EGTA. After the 1 hour Kinase Reaction incubation, 5 μL of a 1:4096 dilution of Development Reagent A is added.

EGFR (ErbB1) = molecular target: T3, EGFR (ErbB1) (Homo sapiens, UniProt P00533); assay: Z'-LYTE kinase selectivity assay EGFR; format: biochemical
T3 construct: purchased Life Technologies PV 3872
T3 sequence (P00533 25-1210): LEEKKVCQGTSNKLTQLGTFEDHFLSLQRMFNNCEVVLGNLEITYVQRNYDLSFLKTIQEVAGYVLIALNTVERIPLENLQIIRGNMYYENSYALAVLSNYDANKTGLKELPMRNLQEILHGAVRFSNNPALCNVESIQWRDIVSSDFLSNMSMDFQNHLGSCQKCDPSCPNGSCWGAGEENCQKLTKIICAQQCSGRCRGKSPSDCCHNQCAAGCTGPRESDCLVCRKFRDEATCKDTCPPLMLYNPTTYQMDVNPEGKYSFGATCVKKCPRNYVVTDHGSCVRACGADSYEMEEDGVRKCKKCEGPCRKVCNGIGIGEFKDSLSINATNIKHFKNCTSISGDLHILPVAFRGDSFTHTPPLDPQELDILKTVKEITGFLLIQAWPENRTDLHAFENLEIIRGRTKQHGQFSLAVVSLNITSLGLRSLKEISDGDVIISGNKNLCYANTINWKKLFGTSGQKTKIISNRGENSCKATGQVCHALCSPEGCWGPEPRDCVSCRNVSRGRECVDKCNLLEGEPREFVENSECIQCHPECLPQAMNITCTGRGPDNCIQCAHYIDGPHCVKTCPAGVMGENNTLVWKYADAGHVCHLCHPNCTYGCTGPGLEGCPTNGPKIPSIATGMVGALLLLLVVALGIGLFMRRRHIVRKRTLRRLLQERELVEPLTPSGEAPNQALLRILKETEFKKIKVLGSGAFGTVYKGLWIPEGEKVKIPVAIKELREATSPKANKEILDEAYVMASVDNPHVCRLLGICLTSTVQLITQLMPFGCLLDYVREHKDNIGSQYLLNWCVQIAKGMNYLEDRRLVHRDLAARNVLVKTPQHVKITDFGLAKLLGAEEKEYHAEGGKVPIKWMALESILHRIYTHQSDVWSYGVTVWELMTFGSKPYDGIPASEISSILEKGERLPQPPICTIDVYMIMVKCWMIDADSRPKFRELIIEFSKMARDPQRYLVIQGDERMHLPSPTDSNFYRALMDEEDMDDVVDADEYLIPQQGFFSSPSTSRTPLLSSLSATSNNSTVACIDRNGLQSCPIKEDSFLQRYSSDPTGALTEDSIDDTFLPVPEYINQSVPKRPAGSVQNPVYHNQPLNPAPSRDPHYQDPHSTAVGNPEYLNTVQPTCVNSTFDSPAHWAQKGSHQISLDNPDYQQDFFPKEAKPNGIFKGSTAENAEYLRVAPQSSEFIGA
From the text: as §1, §2, §3, §4
The 2×EGFR (ErbB1) (# PV 3872)/Tyr 04 (Z′-LYTE® Kinase Assay Kit—Tyrosine 4 Peptide, # PV 3193) mixture is prepared in 50 mM HEPES pH 7.5, 0.01% BRIJ-35, 10 mM MgCl2, 4 mM MnCl2, 1 mM EGTA, 2 mM DTT. The final 10 μL Kinase Reaction consists of 1.1-8 ng EGFR (ErbB1) and 2 μM Tyr 04 in 50 mM HEPES pH 7.5, 0.01% BRIJ-35, 10 mM MgCl2, 2 mM MnCl2, 1 mM EGTA, 1 mM DTT. After the 1 hour Kinase Reaction incubation, 5 μL of a 1:64 dilution of Development Reagent B is added.

[1] = system: TC-71 (EWING'S sarcoma) cells; assay: Cell proliferation assay TC-71 (Alamar Blue); format: cell-based; details: anti-proliferative effect, TC-71 cells, 72 h; read-out: TC71 EC50
Experimental: Cell Proliferation Assays
Compounds were tested for their anti-proliferative effects in the TC-71 (EWING'S sarcoma) and HCT 116 (colorectal carcinoma) cancer cell lines in vitro. Published scientific data has described that interference with the IGF-1R signaling pathway reduces the proliferation of TC-71 cells (Manara et al, 2007). Therefore TC-71 cells served as a positive control cell line for monitoring the activity of compounds against IGF-1R-mediated cell proliferation. […] Therefore the HCT 116 cell line served as a negative control.
2000 TC-71 cells or 1000 HCT 116 cells were seeded per well in 180 μL IMDM+10% foetal calf serum (FCS)+penicillin/streptomycin into 96-well microtitre plates. The plates were placed in a cell culture incubator (37° C. in a humidified atmosphere of […]/5% CO2) overnight. The following day, serial dilutions of compounds, prepared in duplicates, were transferred onto the cell layers (controls without compound). The cells were cultivated for a further 72 h in the cell culture incubator. 20 μL of Alamar Blue™ (Serotec Ltd, Dusseldorf, Germany) was added to each well and the plates incubated for 7 h in the cell culture incubator. Fluorescence (extinction wavelength of 544 nm and emission at 590 nm) was then measured and the normalized data fitted by iterative calculation with a sigmoidal curve analysis program (Graph Pad Prism) with a variable Hill slope to determine the EC50 values.

| Compound | inhibition at 1 µM (NEK2) [%] | inhibition at 1 µM (AMPK A1/B1/G1) [%] | inhibition at 1 µM (EGFR (ErbB1)) [%] | EC50 [1] [nM] |
| --- | --- | --- | --- | --- |
| C[C@@H]1Cc2nn(C)c(-c3ccccc3)c2-c2nc(Nc3ccn(CCN4CCN(C)CC4)n3)ncc21 [Compound I-1] | 15 | 36 | 65 | 2.62 |
| C[C@@H]1Cc2nn(C)c(-c3ccccc3)c2-c2nc(Nc3ccn(CCN4CCOCC4)n3)ncc21 [Compound I-2] | 25 | 34 | 68 | 2.35 |
| C[C@@H]1Cc2nn(C)c(-c3ccccc3)c2-c2nc(Nc3ccn(CCN4CCN(CC(C)(C)O)CC4)n3)ncc21 [Compound I-3] | 29 | 43 | 72 | 2.67 |
| CC(O)CN1CCN(CCn2ccc(Nc3ncc4c(n3)-c3c(nn(C)c3-c3ccccc3)C[C@H]4C)n2)CC1 (stereo partly shown) [Compound I-7] | 32 | 39 | 77 | 2.17 |
| C[C@@H]1Cc2nn(C)c(-c3ccccc3)c2-c2nc(Nc3ccn(CCN4CCN(CC(=O)OC5CCOCC5)CC4)n3)ncc21 [Compound I-8] | 22 | 29 | 56 | 5.98 |
| C[C@@H]1Cc2nn(C)c(-c3ccccc3)c2-c2nc(Nc3ccn(CCN4CCN(CC5CCCO5)CC4)n3)ncc21 (stereo partly shown) [Compound I-9] | 32 | 35 | 65 | 5.43 |
| COCCN1CCN(CCn2ccc(Nc3ncc4c(n3)-c3c(nn(C)c3-c3ccccc3)C[C@H]4C)n2)CC1 [Compound I-11] | 24 | 28 | 53 | 3.74 |
